Results taken from patent US4179516A, “Ethers of 3,4-dihydro-1-benzoxepin-5-one oxime to treat intestinal disorders” (Albert Rolland, S.A., priority 1973, dated 1979).
Read-outs that look alike come from different tables or passages of the source.

Tests used:
in vivo = details: mouse, male Swiss C.D. mice, acid addition salts
Experimental: (§1) The tests were carried out on acid addition salts of the amines of the general formula.
The acute toxicity was determined in male Swiss C.D. mice weighing an average of 20 grammes, after oral administration (P.O) and intravenous administration (I.V.).

rat duodenum = assay: Relaxant activity in vitro on isolated organ: decontraction (rat duodenum); details: Tyrode solution, 37° C.
Experimental: as §1
(§2) For tests on the isolated organ: An organ fragment of rat duodenum or guinea pig ileum is kept alive in 50 ml of oxygenated and thermostatically controlled (37° C.) Tyrode solution. The activity of the compounds is tested on the spontaneous movements of the organ and the contractions produced by the addition of solution of barium chloride or acetyl choline to the bath. The movements were recorded on a DMP 4A Roucaire physiograph.

guinea pig ileum = assay: Relaxant activity in vitro on isolated organ: anti-acetylcholine (guinea pig ileum); details: Tyrode solution, 37° C., acetyl choline
Experimental: as §1, §2

[1] = tested on: smooth intestinal muscle fibre (terminal part of the duodenum); assay: In vivo relaxant activity on smooth intestinal muscle in the anaesthetised (chloralosed) dog, balloon in terminal duodenum; details: 2 mg/kg intravenously, compared with atropine
Experimental: as §1
For the in vivo tests: a balloon is introduced into the chloralosed animal at the level of the terminal part of the duodenum and the intestinal movements are recorded on a Beckman polygraph with the acid of Statham PM 97 gauge.

[2] = according to the authors of Collection Czechoslov. Chem. Common 37 868-886 (1972); cited from earlier work
[3] = intravenous, read-out: Toxicity in mice LD50 I.V
[4] = oral, read-out: Toxicity in mice LD50 P.O.

Structure (SMILES)	LD50 (in vivo; [3])	LD50 (in vivo; [4])	Minimum active dose concentration, Decontraction (rat duodenum) (rat duodenum)	Minimum active dose concentration, Anti-Acetyl-Cholire (guinea pig ileum) (guinea pig ileum)	effect as regards the reduction in muscle tone and intestinal peristalsis [1]	spasmolytic action [2]
CN(C)CCCON=C1CCCOc2ccc(Cl)cc21 [Example 8, 7-chloro-3,4-dihydro-1-benzoxepin-O-(dimethylaminopropyl)-5-one oxime]	60 mg/kg	500 mg/kg	0.12 µg/mL	3.5 µg/mL	comparable with or even superior to that of atropine	–
Clc1ccc2c(c1)C(=NOCCN1CCOCC1)CCCO2 [Example 6, 7-chloro-3,4-dihydro-1-benzoxepin-O-(morpholinoethyl)-5-one oxime]	120 mg/kg	> 1000 mg/kg	0.15 µg/mL	5.5 µg/mL	–	–
CN(C)CCON=C1CCCOc2cc(Cl)ccc21	–	–	–	–	–	weak spasmolytic action
CCN(CC)CCO/N=C1/CCCOc2ccc(Cl)cc21 [Example 2, 7-chloro-3,4-dihydro-1-benzoxepin-O-(diethylaminoethyl)-5-one oxime: isomer with the cis configuration in relation to the benzene nucleus]	37 mg/kg	420 mg/kg	0.1 µg/mL	1 µg/mL	comparable with or even superior to that of atropine	–
CCN(CC)CCON=C1CCCOc2ccc(OC)cc21 [Example 10, 7-methoxy-3,4-dihydro-1-benzoxepin-O-(diethylaminoethyl)-5-one oxime]	45 mg/kg	450 mg/kg	0.5 µg/mL	0.5 µg/mL	–	–
CCN(CC)CCON=C1CCCOc2ccc(Br)cc21 [Example 12, 7-bromo-3,4-dihydro-1-benzoxepin-O-(diethylaminoethyl)-5-one oxime]	40 mg/kg	250 mg/kg	0.1 µg/mL	1 µg/mL	comparable with or even superior to that of atropine	–
CN1[C@@H]2CC[C@H]1C[C@@H](OC(=O)C(CO)c1ccccc1)C2 (stereo partly shown) [ATROPINE, reference compound]	–	–	inactive	0.006 µg/mL	–	–
Clc1ccc2c(c1)C(=NOCCN1CCCC1)CCCO2 [Example 7, 7-chloro-3,4-dihydro-1-benzoxepin-O-(1-pyrrolidinyl-ethyl)-5-one oxime]	35 mg/kg	450 mg/kg	1.5 µg/mL	1.3 µg/mL	comparable with or even superior to that of atropine	–
CN(C)CCON=C1CCCOc2ccc(Cl)cc21 [Example 1, 7-chloro-3,4-dihydro-1-benzoxepin-O-(dimethylaminoethyl)-5-one oxime]	32 mg/kg	150 mg/kg	0.06 µg/mL	5.5 µg/mL	comparable with or even superior to that of atropine	–
COc1ccc2c(c1)C(=NOCCCN(C)C)CCCO2 [Example 11]	–	> 1000 mg/kg	0.3 µg/mL	2.0 µg/mL	–	–
COc1ccc2c(c1)C(=NOCCN(C)C)CCCO2 [Example 9, 7-methoxy-3,4-dihydro-1-benzoxepin-O-(dimethylaminoethyl)-5-one oxime]	35 mg/kg	500 mg/kg	0.12 µg/mL	1.5 µg/mL	–	–
